# Where “and” joins values, the source holds several entries; their conditions need not be identical. Equal values may be shown once.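 Cells were grown in 96-well plates and exposed to each compound for 48 hours at five concentrations; endpoints were interpolated linearly between bracketing concentrations, or set to the highest concentration if not reached. GI50 = concentration required for 50% inhibition of growth. TGI: total growth inhibition.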
# Legend:
# Assay in all cases: DTP human tumour cell line panel, 48 h
# A498 renal = test system: A498 renal
# BT-549 breast = test system: BT-549 breast
# HT29 colon = test system: HT29 colon
# MDA-MB-435 = test system: MDA-MB-435
# NCI-H226 lung = test system: NCI-H226 lung
# OVCAR-4 ovarian = test system: OVCAR-4 ovarian
# SNB-19 CNS = test system: SNB-19 CNS
# UACC-62 melanoma = test system: UACC-62 melanoma
# RPMI-8226 leukemia = test system: RPMI-8226 leukemia
# SR leukemia = test system: SR leukemia
SMILES,TGI (A498 renal),TGI (BT-549 breast),TGI (HT29 colon),TGI (MDA-MB-435),TGI (NCI-H226 lung),TGI (OVCAR-4 ovarian),TGI (SNB-19 CNS),TGI (UACC-62 melanoma),TGI (RPMI-8226 leukemia),TGI (SR leukemia),GI50 (OVCAR-4 ovarian),GI50 (SNB-19 CNS),GI50 (A498 renal),GI50 (HT29 colon),GI50 (MDA-MB-435),GI50 (NCI-H226 lung),GI50 (RPMI-8226 leukemia),GI50 (SR leukemia),GI50 (UACC-62 melanoma)
COc1ccc(-c2nc(-c3ccc(OC)cc3)n(-c3ccccc3)n2)cc1,> 100 µM,> 100 µM,> 100 µM,> 100 µM,> 100 µM,> 100 µM,> 100 µM,> 100 µM,,,,,,,,,,,
O=C1NC(=O)C(C(=O)C(=O)Nc2cc(Cl)ccc2Cl)C(=O)N1,> 100 µM,,,,,> 100 µM,> 100 µM,> 100 µM,> 100 µM,,,,,,,,,,
N=c1c2sc3nc4ccccc4n3c2ncn1Cc1ccccc1,> 100 µM,> 100 µM,,> 100 µM,> 100 µM,> 100 µM,> 100 µM,> 100 µM,> 100 µM,> 100 µM,,,,,,,,,
CCO/C(O)=C(/C(=N)N1CCOCC1)C(=O)Nc1cccc(C(F)(F)F)c1,> 100 µM,> 100 µM,> 100 µM,> 100 µM,> 100 µM,> 100 µM,> 100 µM,> 100 µM,> 100 µM,,,,,,,,,,
CCOC(=O)COc1cc(-c2ccccc2F)nc2cc3c(cc12)OCO3,,> 100 µM,> 100 µM,> 100 µM,> 100 µM,,,> 100 µM,> 100 µM,,,,,,,,,,
CCCCn1c(-c2ccccc2)cs/c1=N\N=C1C=C(C(C)(C)C)C(=O)C(C(C)(C)C)=C1,> 100 µM,,> 100 µM,,> 100 µM,> 100 µM,> 100 µM,> 100 µM,,> 100 µM,,,,,,,,,
COc1cc(C2CC(C)(N3CCOCC3)Oc3cc4c(cc32)OCO4)cc(OC)c1OC (centres undefined),,> 100 µM,,> 100 µM,> 88.4 µM,8.65 µM,> 100 µM,> 100 µM,0.151 µM,> 100 µM,,,,,,,,,
O=[N+]([O-])c1ccc(CSc2nn(Cc3ccc([N+](=O)[O-])cc3)cc3ncnc2-3)cc1,58.8 µM,84.8 µM,> 100 µM,74.7 µM,> 100 µM,> 100 µM,,40.7 µM,75 µM,,,,,,,,,,
CC1=C(C(=O)NNC(=O)Cc2ccccc2)CC(C(=O)NNC(=O)Cc2ccccc2)=C(C)N1,> 100 µM,> 100 µM,> 100 µM,> 100 µM,> 100 µM,> 100 µM,> 100 µM,> 100 µM,,,,,,,,,,,
Cc1ccsc1/C=N/NC1=NCCN1,> 100 µM,> 100 µM,> 100 µM,> 100 µM,> 100 µM,> 100 µM,> 100 µM,> 100 µM,> 100 µM,,,,,,,,,,
COc1c(C)c(C/C=C(\C)CC/C=C(\C)CC/C=C(\C)CCC=C(C)C)c(OC)c(OC)c1OC,,> 100 µM,> 100 µM,> 100 µM,,> 100 µM,> 100 µM,> 100 µM,,> 100 µM,,,,,,,,,
Oc1cc(O)c2c(c1)O[C@H](c1ccc(O)c(O)c1)[C@@H](O)C2,,,> 100 µM,> 100 µM,> 100 µM,> 100 µM,> 100 µM,,> 100 µM,> 100 µM,,,,,,,,,
N#C/C(=C\c1ccc(O)c(O)c1)c1c(C#N)c(N)nn1-c1ccccc1,9.63 µM,,65.8 µM,,,38.7 µM,42.4 µM,> 100 µM,,,,,,,,,,,
Cn1c(N/N=C/c2ccccc2)nc(-c2ccc3c(c2)OCO3)c(C#N)c1=O,> 100 µM,,> 100 µM,> 100 µM,,> 100 µM,> 100 µM,> 100 µM,> 100 µM,> 100 µM,,,,,,,,,
CCN(CC)CCNc1c2ccccc2nc2cccc([N+](=O)[O-])c12,0.014 µM,0.0187 µM,0.0408 µM and 0.0455 µM,0.00323 µM,0.0553 µM,0.0289 µM and 0.178 µM,,0.0208 µM,,0.0888 µM,0.0279 µM,0.0166 µM,,,,,,,
C1=N[C@]23C(=N[C@H](N=C2NCc2ccco2)[C@]24N=CNC2=N[C@H]3N=C4NCc2ccco2)N1,> 100 µM,,> 100 µM,> 100 µM,> 100 µM,> 100 µM,> 100 µM,> 100 µM,> 100 µM,> 100 µM,65 µM,> 100 µM,5.8 µM,> 100 µM,> 100 µM,65.4 µM,> 100 µM,> 100 µM,> 100 µM
O=C(Nc1ccccc1[N+](=O)[O-])/C(=N/Nc1cccc(Cl)c1)c1c(O)c2ccccc2oc1=O,> 100 µM,,> 100 µM,,> 100 µM,> 100 µM,> 100 µM,> 100 µM,,2.67 µM,,,,,,,,,
Cc1ccc(C2(O)c3ccccc3C(=O)N(C)C2(O)c2ccc(C)cc2)cc1 (centres undefined),> 100 µM,> 100 µM,> 100 µM,> 100 µM,,50.9 µM,64.1 µM,> 100 µM,> 100 µM,13.2 µM,,,,,,,,,
O=C(NN1C(=O)C(Cl)C1c1cccc(O)c1)c1ccccc1O (centres undefined),> 100 µM,,> 100 µM,,> 100 µM,> 100 µM,> 100 µM,> 100 µM,,,,,,,,,,,
CCOC(=O)NN(C(=O)OCC)c1ccc(N=Nc2ccc(OC)cc2)n1C,56.1 µM,,58.3 µM,56 µM,97.2 µM,> 100 µM,,> 100 µM,> 100 µM,,,,,,,,,,
CC1CC(=O)Nc2ccc(Cl)cc2N1C(=O)CN1CCC(CCCCN(C)C)CC1 (centres undefined),> 100 µM,,> 100 µM,,> 100 µM,> 100 µM,> 100 µM,> 100 µM,> 100 µM,> 100 µM,,,,,,,,,
Clc1ccc(Nc2ncco2)cc1Cl,> 10 µM,> 10 µM,> 10 µM,> 10 µM,> 10 µM,> 10 µM,> 10 µM,> 10 µM,,> 10 µM,,,,,,,,,
CC(C)OP(=O)(OC(C)C)C(=NCCO)NNc1ccc([N+](=O)[O-])cc1,> 100 µM,,,,> 100 µM,> 100 µM,> 100 µM,> 100 µM,> 100 µM,> 100 µM,,,,,,,,,
COc1cccc(N/C(C)=C2/CCOC2=O)c1,> 10 µM,,> 10 µM,> 10 µM,> 10 µM,> 10 µM,> 10 µM,> 10 µM,> 10 µM,> 10 µM,,,,,,,,,

# Reference: PubChem BioAssay (NCI)
